Reference: patent US20060257388A1, “Drug delivery systems for stabilized formulations of alpha adrenergic receptor antagonists and the uses thereof” (priority 2005, published 2006)
Where a name gives a salt, the structure may show the parent alone.

Experiments:
[1] = Narrow-range pH-stability profiling at 60° C. (HPLC); format: physicochemical; conditions: 50 mM sodium phosphate, FIG. 2
Procedure: (§1) The drug is monitored at a detection wavelength of 232 nm.
All samples were stored in the dark. […] All samples were analyzed without dilution.
The phosphate buffers were prepared as previously described. The samples were analyzed by HPLC for phentolamine concentration and purity at an initial time point and after 2, 7 and 14 days of storage at 60° C. Measurement of sample pH was done after HPLC analysis.
In order to precisely define the most favorable pH, a stronger stressing condition was needed to generate a greater extent of degradation in the lower pH region. For this study, the incubation condition was shifted from 40° C. to 60° C. Since the extent of degradation after fourteen (14) days was still less than twenty percent (20%) in most samples, zero-order rate kinetics was used for the degradation curves (concentration versus time). The calculated rate constant was plotted against pH to provide the narrow-range pH-stability profile.

[2] = Effect of buffer concentration on stability, sodium acetate pH 3.5, 60° C. (HPLC, pH); format: physicochemical
Procedure: as §1
Tightly sealed glass vials containing the test solutions were placed in an oven at 40° C. or 60° C. All samples were stored in the dark. Aliquots were removed at designated time points for HPLC analysis and pH measurement. All samples were analyzed without dilution.
In conjunction with HPLC analysis, pH was measured. The measurement was performed using the same samples as used for the HPLC analysis. The pH meter was calibrated using pH 4.00 and 7.00 buffer standards prior to each measurement.
Samples were incubated at 60° C. with scheduled testing performed at day 0, 2, 7, and 14. The various buffer concentrations were prepared by diluting the 50 mM buffer with water and re-examining the pH value to determine if the pH 3.5 was constant. Measurements of pH were performed after HPLC analysis of the samples.

[3] = Effect of additives on stability, 60° C. (HPLC); format: physicochemical; conditions: for Phentolamine Concentration: 10 mM Sodium Acetate, pH 3.5, 60° C.
Excerpt: as §1
The additives in this study are selected from five groups of injectable excipients namely, tonicity modifiers (NaCl and d-mannitol), metal chelators (EDTA), antioxidants (sodium metabisulfite), complexing agents α-cyclodextrin and niacinamide) and solvents (glycerol and polypropylene glycol). A tonicity modifier is required for adjusting the phentolamine mesylate solution to isotonic. […] Complexing agents were applied in the hope that a possible formation of an inclusion complex (by α-cyclodextrin) or stacking complex (by niacinamide) with phentolamine would modify the rate of hydrolytic degradation of the drug substance. Solvents were added to reduce the dielectric constant of the vehicle and were intended to slow the rate of degradation due to solvent polarity.
The pH value of the solutions was readjusted to pH 3.5, as required. The 25% glycerol (25 g in 100 ml total volume with water) and 25% polypropylene glycol (25 g in 100 ml total volume with water) solutions had their buffer strength adjusted by addition of acetic acid followed by addition of 2 N NaOH for pH adjustment to pH 3.5 followed by addition of the drug to 0.1 mg/ml.
All samples were placed in 10 ml glass serum vials, stoppered with rubber closures with an inert coating (Dalkyo Flurotec by WEST Pharmaceutical), and sealed with flip-top caps after sampling. Vials were placed at 60° C. after the weights were recorded.
Sampling occurred at the initial time point and on days 2, 7, and 14. Vials were weighed, sampled, sealed, re-weighed, and replaced under the selected storage condition until testing at the subsequent time point. Records indicate no significant weight loss during storage.

healthy adult volunteers = experiment: Reversal of soft-tissue anesthesia after inferior alveolar nerve block, proof-of-principle trial (Example 3); format: in vivo, human; conditions: 0.2 mg in 1.8 ml
Procedure: The objective of this proof-of-principle trial was to evaluate the feasibility of reversing soft-tissue anesthesia by pharmacologically blocking the effects of epinephrine. […] Subjects self-evaluated the return of normal sensation in their lip, chin, tongue, nose, and teeth by palpations at 5-minute intervals starting at 5 minutes before the study drug injection and continuing for approximately 4-5 hours. To avoid biased responding, subjects were told that they could not leave the clinic for 8 hours after the last injection. Responses for soft tissues were categorized as (1) numb (no feeling), (2) feeling of pins and needles, or (3) normal sensation. Responses for teeth were (1) numb (no feeling) or (2) normal sensation. Safety was evaluated through reports of adverse events, measurement of vital signs and two-lead electrocardiograms before, during, and after the injections of anesthetic and study drug, and through pain assessments using visual analog scales.

[4] = system: healthy adult volunteer subjects; experiment: Dose range study, reversal of local anesthesia after mandibular nerve block (Example 4); format: in vivo, human
Excerpt: The objectives of this study were to evaluate the safety and efficacy of a range of doses of phentolamine in reversing local anesthesia after a mandibular nerve block. […] Subjects palpated their lower lip, chin, tongue, and teeth every five minutes for the next five hours after injections.

[5] = system: healthy adult volunteer subjects; experiment: Dose range study, reversal of local anesthesia after maxillary infiltration (Example 5); format: in vivo, human
Procedure: The objectives of this study were to evaluate the safety and efficacy of a range of doses of phentolamine in reversing local anesthesia after a maxillary infiltration. Four groups of eight healthy adult volunteer subjects were given an infiltration of the lateral incisor using one 1.8 ml cartridge of lidocaine 2% with epinephrine 1:100,000. […] Subjects palpated their upper lip, nose, and teeth every five minutes for the next five hours after injections.

patients [6] = conditions: 0.5-1.5 mg, patients pretreated with lignocaine admixed with epinephrine; cited from earlier work
patients [7] = conditions: systemic doses, package insert; cited from earlier work
human = conditions: solution containing 0.05 mg/ml; cited from earlier work
[8] = 0.02 mg, 0.06 mg, 0.4 mg in 1.8 ml
[9] = 0.02 mg, 0.08 mg, 0.4 mg in 1.8 ml

pH at which phentolamine was most stable [1]: 3.5
Phentolamine Concentration ([2]; 50 mM Sodium Acetate pH 3.5, 60° C., Day 2): 101 µg/mL
Phentolamine Concentration ([3]; Additive Glycerol, 25% w/v, Day 0): 126 µg/mL
Phentolamine Concentration ([3]; Additive Glycerol, 25% w/v, Day 2): 123 µg/mL
Phentolamine Concentration ([3]; Additive Glycerol, 25% w/v, Day 14): 115 µg/mL
Phentolamine Concentration ([3]; Additive Polypropylene glycol, 25% w/v, Day 0): 118 µg/mL
Phentolamine Concentration ([3]; Additive Polypropylene glycol, 25% w/v, Day 2): 121 µg/mL
Phentolamine Concentration ([3]; Additive Polypropylene glycol, 25% w/v, Day 7): 113 µg/mL
Phentolamine Concentration ([3]; Additive Sodium metabisulfite, 0.5 mg/ml, Day 2): 101 µg/mL
Phentolamine Concentration ([3]; Additive α-Cyclodextrin, 50 mg/ml, Day 0): 102 µg/mL
Structure (SMILES): Cc1ccc(N(CC2=NCCN2)c2cccc(O)c2)cc1 [Phentolamine Mesylate]
rate of degradation versus un-buffered control (in words) ([2]; 5, 10 and 50 mM sodium acetate): comparable and was an improvement over the un-buffered control
impact of additives on stability (in words) ([3]; d-Mannitol and disodium EDTA): improve stability based on the rate constant or to exhibit no negative impact based on purity values
adverse effects (healthy adult volunteers): Adverse effects were few and no differences were noted between the active and placebo groups
electrocardiogram (healthy adult volunteers): no abnormalities in the electrocardiogram
duration of anesthesia versus saline (in words) (healthy adult volunteers; 60 minutes after inferior alveolar nerve block with 2% lidocaine, 1:100,000 epinephrine, lip, chin, tongue, nose, teeth): significantly (p<0.01) reduced the duration of anesthesia in each tissue
adverse events [4, 8]: Adverse events were few and no differences were noted between the active and placebo groups
electrocardiogram [4, 8]: no abnormalities in the electrocardiogram
duration of anesthesia versus saline placebo (in words) ([4]; all doses tested (0.02 mg, 0.06 mg, 0.4 mg in 1.8 ml), 60 minutes after inferior alveolar nerve block, lower lip, chin, tongue, teeth): significantly (p<0.05) reduced the duration of anesthesia in each measured tissue
adverse events [5, 9]: Adverse events were few and no differences were noted between the active and placebo groups
electrocardiogram [5, 9]: no abnormalities in the electrocardiogram
duration of anesthesia versus saline placebo (in words) ([5]; all doses tested (0.02 mg, 0.08 mg, 0.4 mg in 1.8 ml), 40 minutes after lateral incisor infiltration, upper lip, nose, teeth): significantly (p<0.01) reduced the duration of anesthesia in each measured tissue
duration of anesthesia (in words) (patients [6]): reduction in the duration of anesthesia with increasing amounts
side effect warning (patients [7]): Myocardial infarction, cerebrovascular spasm, and cerebrovascular occlusion have been reported
reversal of local anesthetic effect (in words) (human): rapidly reverse the effect of a local anesthetic
